This is an account of results in patent EP2408450B1, “ALPHA-(N-SULFONAMIDO)ACETAMIDE COMPOUND AS AN INHIBITOR OF BETA AMYLOID PEPTIDE PRODUCTION” (Bristol-Myers Squibb Company, priority 2009, dated 2010).

Structures are written as SMILES. Marks after values point to notes of the source that are not given here.

Data set [1] addresses presenilin target site of the γ-secretase complex. As to the kind of experiment: Presenilin binding assay (radioligand displacement, THP-1 membranes). Conditions: mean ± SD, n = 8. As to the method: Radioligand displacement assays with [^3H] (R)-4-((N-(1-amino-4-methyl-1-oxopentan-2-yl)-4-chlorophenylsulfonamido)methyl)-N-(2-methoxyethyl)benzamide were carried out using a method previously described for [^3H] (2R,3S)-2-isobutyl-N1-((S)-2-oxo-1-(3-phenoxybenzyl)azepan-3-yl)-3-propylsuccinamide (RE987, compound A [Seiffert, D. et al., "Presenilin-1 and -2 are molecular targets for γ-secretase inhibitors", J. Biol. Chem., 275(44):34086-34091 (2000)]). Several experiments were performed to confirm that [^3H] (R)-4-((N-(1-amino-4-methyl-1-oxopentan-2-yl)-4-chlorophenylsulfonamido)methyl)-N-(2-methoxyethyl)benzamide bound to γ-secretase. First, the specific binding of [^3H] […] (R)-4-((N-(1-amino-4-methyl-1-oxopentan-2-yl)-4-chlorophenylsulfonamido)methyl)-N-(2-methoxyethyl)benzamide binding to THP-1 membranes correlated well with γ-secretase potency both as measured using previous radioligand binding assays and inhibition of Aβ formation in cultured cells.
THP-1 cells were grown in Spinner cultures in RPMI 1640 containing L-glutamine (Life Technologies Inc.) and 10 µM β-mercaptoethanol to a cell density of 5 x 10^5/mL. […] Filters were washed three times with 0.3 mL per well of phosphate buffered saline pH 7.0 at 4°C and radioactivity was measured using a Wallac 1450 Microbeta liquid scintillation counter (PerkinElmer, Boston, MA). […]

Another data set relates to Aβ42. Kind of data set: Inhibition of Aβ42 formation in cultured H4 APP751 SWE cells. The class given is cell-based. Conditions: H4-8Sw cells, mean ± SD, n = 45.
A further data set has as its system CSF Aβ40. As to the kind of experiment: Rat CSF Aβ40 assay (4G8-TSD ELISA). The class given is in vivo. Conditions: acute rat studies; read-out: ED50 for reduction of CSF Aβ40. The text has this: As a result of these sequence differences, antibodies that recognize the N-terminal region of human Aβ, such as 26D6, bind weakly to rodent Aβ. […] Table 1: Summary of Antibody Pairs Used to Assay In vivo Samples Each of these assays was validated using several methods. […] The optimized and validated Aβ assays still contained a small amount of the signal (5-20% of vehicle control) which could not be depleted by anti-Aβ antibodies or treatment with γ-secretase inhibitors. […] Female Harlan Sprague-Dawley rats (∼200 - 250 g) were dosed daily by oral gavage with a dosing vehicle of 99% PEG-400, 1% Tween-80 at 4 mL/kg in the morning. […] All procedures were done in concordance with ACUC guidelines. […] Plasma was obtained after centrifugation. […] CSF samples were centrifuged to remove cells or debris prior to dilution at 1:2 in 4% BSA and frozen for subsequent analysis. […] Plates were coated with TSD antibody and washed as for the brain Aβ40 assay. CSF samples were diluted 1:10 in PBS, pH 7.8, 0.1 % Tween-20. At time of collection, CSF was previously diluted 1:2 in 4% BSA in water. […] Samples were detected using 4G8-biotin (Signet) diluted 1:8000 in PBS, 0.05% Tween, 0.1% BSA for 1 hour.
For orientation: ELISA stands for enzyme-linked immunosorbent assay.

Another data set has as its system proximal duodenum. Kind of data set: Histopathology of the proximal duodenum (GI toxicity) in rats. In kind it is in vivo, rat. Conditions: for Day 4 GI Tox: 4 days; for Day 7 GI Tox: 7 days; for GI Tox: 4-day. As to the method:
Female Harlan Sprague-Dawley rats (∼200 - 250 g) were dosed daily by oral gavage with a dosing vehicle of 99% PEG-400, 1% Tween-80 at 4 mL/kg in the morning. […] All procedures were done in concordance with ACUC guidelines. […] Plasma was obtained after centrifugation. […] CSF samples were centrifuged to remove cells or debris prior to dilution at 1:2 in 4% BSA and frozen for subsequent analysis.
Following euthanasia by CO2 asphyxiation, approximately 3 cm long sections of the proximal duodenum were removed from the abdomen, rinsed with ice cold Phosphate buffered saline and placed into 10% buffered formalin prior to sectioning. Tissue sections of the duodenum were embedded in liquid paraffin, mounted onto blocks, and cut into triplicate sagittal (cross-luminal) ring sections and stained using the Periodic acid Schiff's base method prior to microscopic evaluation. All animals survived until scheduled necropsy was performed.

A further data set deals with plasma Aβ40. Kind of data set: Rat plasma Aβ40 assay (4G8-TSD ELISA). Conditions: for plasma Aβ40, % of baseline Aβ40 values: 2 to 24 hours post dosing.

Experimental for Aβ42: Cells were maintained in log phase through twice weekly passage at a 1:20 dilution. […] Following incubation for 19 hours in 5% CO2 at 37°C, plates were briefly centrifuged (1000 rpm, 5 min). […] Antibody cocktails were freshly prepared by dilution into 40 mM Tris-HCl (pH 7.4) with 0.2% BSA and added to assay plates. […] Assay plates containing antibodies were sealed with aluminum foil and incubated overnight at 4°C. Signal was determined using a Viewlux counter (Perkin Elmer) and IC50 values determined using curve fitting in CurveMaster (Excel Fit based).

Compound `NC(=O)[C@@H](CCC(F)(F)F)N(Cc1ccc(-c2ncon2)cc1F)S(=O)(=O)c1ccc(Cl)cc1` [(2R)-2-[[(4-chlorophenyl)sulfonyl][[2-fluoro-4-(1,2,4-oxadiazol-3-yl)phenyl]methyl]amino]-5,5,5-trifluoropentanamide] displayed a Ki in data set [1] of 0.48 nM. In addition, 0.27 ± 0.12 nM corresponded to half-maximal inhibition in the data set with Aβ42 (IC50). In addition, the median effective dose (ED50) was in the range of 1 to 10 mg/kg with CSF Aβ40 and 1 to 10 mg/kg in the data set on plasma Aβ40 (Rattus norvegicus, read-out: ED50 for reduction of plasma Aβ40). In addition, the “rats with mild lesions in duodenal tissue (histological evaluation)” value in the data set on proximal duodenum (100 mg/kg/day, 4-day rat study) was 1/3. In addition, the “Day 4 GI Tox” value was “NAD” with proximal duodenum (Rat Study No. 3, 30 mg/kg/day) and “+^b” with proximal duodenum (Rat Study No. 3, 300 mg/kg/day). Further, the “Day 7 GI Tox” value with proximal duodenum (Rat Study No. 3, 30 mg/kg/day) is recorded as “NAD”; with proximal duodenum (Rat Study No. 3, 300 mg/kg/day), “NAD”. Besides, the “dose needed to induce GI toxicity” value with proximal duodenum (female, Harlan Sprague-Dawley, rat, in vivo) was determined as 100 mg/kg/day. Also, the “GI Tox” value in the data set with proximal duodenum (rat, Study No. 2, 3 mg/kg/day) is “NAD”; with proximal duodenum (rat, Study No. 2, 10 mg/kg/day), “NAD”; with proximal duodenum (rat, Study No. 2, 30 mg/kg/day), “NAD”; in the data set with proximal duodenum (rat, Study No. 2, 100 mg/kg/day) it was “+^e”; with proximal duodenum (rat, Study No.1, 3 mg/kg/day), “NAD”; in the data set on proximal duodenum (rat, Study No.1, 10 mg/kg/day) it was “NAD”. Moreover, in the data set with proximal duodenum (rat, Study No.1, 30 mg/kg/day), the “GI Tox” value is reported as “NAD”. Besides, the drug-related duodenal changes entry in the data set with proximal duodenum (rats given ≤ 30 mg/kg) is given as “No drug-related duodenal changes”. Further, in the data set on proximal duodenum (rats, 100 mg/kg/day once daily for 4 days, 1 of 3 animals), the “microscopic evaluation of the proximal duodenum” value is “slight goblet cell metaplasia”. Besides, the “plasma Aβ40, % of starting values” in the data set on plasma Aβ40 (rat, single dose 1 mg/kg, by 8 hours) is recorded as 250%. In the data set on plasma Aβ40 (rat, single dose 1 mg/kg, by 24 hours), the “plasma Aβ40” value is given as “returning to baseline values”. The “plasma Aβ40, % of baseline Aβ40 values” is given as “less than 25%” in the data set on plasma Aβ40 (rat, single dose 10 mg/kg) and “less than 25%” with plasma Aβ40 (rat, single dose 100 mg/kg). For the same compound, the “plasma Aβ40, % of vehicle control” value with plasma Aβ40 (rat, single dose 30 mg/kg) stood at 2%.

By Ki is commonly meant the dissociation constant of the complex between target and ligand, obtained from inhibition or displacement. Lower therefore signals higher affinity. As usually defined, the IC50 is the concentration needed to halve the response being measured. Higher therefore signals weaker potency in that assay. For orientation: ED50 means the midpoint of the dose-response relation.
